Assay results taken from US20230149418A1, “METHODS AND SYNERGIC COMPOSITIONS FOR TREATING VIRAL INFECTIONS” (HADASIT MEDICAL RESEARCH SERVICES AND DEVELOPMENT LTD., priority 2018, published 2023).
Where two headings read alike, the source gives them in different places.

Assays:
[1] = system: HCMV; assay: Ex vivo HCMV infection of human decidual (placental) tissue organ cultures, viral mRNA copy number; type: cell-based, human cytomegalovirus; conditions: for EC50: Human betaherpesvirus 5; for Dose of drug alone at Fa 0.9: Fa 0.9, drug alone; for DRI (dose reduction index): combination artemisone + maribavir
Protocol: Organ cultures were washed and stored at -80° C. until assayed. RNA was extracted, and the purified RNA samples were subjected to reverse transcription (RT), followed by quantitative real-time PCR. The viral mRNA copy number was normalized by the cellular housekeeping gene β-actin.
We employed our model of HCMV infection in human decidual tissues (representing the maternal aspect of the chimeric human placenta), maintained as multi-cell-type 3D organ cultures as described in Weisblum Y. et al. J Virol 2011 85(24): 13204-13. doi: 10.1128/JVI.05749-11. For infection of the organ cultures, decidual tissues were placed in 48-well plates and inoculated with the virus (5x10^4 plaque forming units (PFU)/well) for 12 h to allow effective viral adsorption. The tissues were further monitored for viral infection and spread for 7 days. For determination of the drug EC50 values of in the tissues, serial drug concentrations: each drug separately or combination of the drugs were added to the infected decidual tissues during viral adsorption at any further medium replacement to keep the drug concentration constant. The results were compared to samples to which the drug was not added. The EC50 was defined as the drug concentration required to reduce the viral mRNA copy number by 50%. The effect of drug combinations was tested in accordance with the Chou-Talalay method. All comparative experiments were performed in parallel on tissues from the same donor.
The dose reduction index (DRI) was then calculated as described in Chou. As described earlier, the DRI is a measure of how many folds the dose of each drug in a synergistic combination may be reduced at a given effect level compared with the doses of each drug alone. For each one of the below tables: Fa - fraction of virus affected; doses are provided in µm.

[2] = system: human endothelial cells; conditions: compared with dihydroartemisinin; cited from earlier work

CC1CCC2[C@@H](C)[C@H](N3CCS(=O)(=O)CC3)OC3O[C@]4(C)CCC1C32OO4 (stereo in doubt) [artemisone]
EC50 ([1]; ex vivo, Fa 0.5, drug alone, read-out: Dose of drug alone at Fa 0.5): 425 nM
EC50 ([1]; sole drug, ex vivo decidual tissues, read-out: EC50 (concentration required to reduce the viral mRNA copy number by 50%)): 500 nM
Dose of drug alone at Fa 0.05 ([1]; ex vivo, Fa 0.05, drug alone): 0.00699 µm
Dose of drug alone at Fa 0.75 ([1]; ex vivo, Fa 0.75, drug alone): 1.965 µm
Dose of drug alone at Fa 0.9 ([1]; ex vivo): 9.1 µm
Dose of drug alone at Fa 0.9 ([1]; ex vivo, listed as Art): 9.098 µm
Dose of drug alone at Fa 0.95 ([1]; ex vivo, Fa 0.95, drug alone): 25.7963 µm
Dose of drug alone at Fa 0.97 ([1]; ex vivo, Fa 0.97, drug alone): 54.1517 µm
DRI (dose reduction index) ([1]; ex vivo, Fa 0.05): 0.1239
DRI (dose reduction index) ([1]; ex vivo, Fa 0.5): 1.12
DRI (dose reduction index) ([1]; ex vivo, Fa 0.75): 2.546
DRI (dose reduction index) ([1]; ex vivo, Fa 0.9): 5.8
DRI (dose reduction index) ([1]; ex vivo, Fa 0.9, listed as Art): 5.789
DRI (dose reduction index) ([1]; ex vivo, Fa 0.95, listed as Art): 10.1210
DRI (dose reduction index) ([1]; ex vivo, Fa 0.97): 15.0614
Anti-angiogenic activity [2]: significantly less anti-angiogenic than dihydroartemisinin
